From patent US10457703B2, “Bile acid derivatives as FXR/TGR5 agonists and methods of use thereof” (ENANTA PHARMACEUTICALS, INC., priority 2015, dated 2019)

Molecular target: human FXR (NR1H4) (Homo sapiens (Human), UniProt Q96RI1)
Experiment: Human FXR (NR1H4) Assay (Gal4 promoter driven luciferase reporter, Indigo Bioscience kit);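 for Efficacy (%): 100% equals the efficacy of CDCA; efficacy normalized to CDCA set as 100%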
Format: cell-based
Details: for EC50: Human FXR (NR1H4) Assay, potency ranges; for Emax: read-out: Efficacy (%)
Procedure, shortened: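 CHO reporter cells expressing human FXR with an FXR-responsive luciferase reporter, treated with compound doses at 0.2% DMSO. Incubation lasted 22 h at 37 °C before luciferase detection reagent was added. Luminescence was then read.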

Chain of human FXR (NR1H4) (Q96RI1 whole entry, the tested form may be a part): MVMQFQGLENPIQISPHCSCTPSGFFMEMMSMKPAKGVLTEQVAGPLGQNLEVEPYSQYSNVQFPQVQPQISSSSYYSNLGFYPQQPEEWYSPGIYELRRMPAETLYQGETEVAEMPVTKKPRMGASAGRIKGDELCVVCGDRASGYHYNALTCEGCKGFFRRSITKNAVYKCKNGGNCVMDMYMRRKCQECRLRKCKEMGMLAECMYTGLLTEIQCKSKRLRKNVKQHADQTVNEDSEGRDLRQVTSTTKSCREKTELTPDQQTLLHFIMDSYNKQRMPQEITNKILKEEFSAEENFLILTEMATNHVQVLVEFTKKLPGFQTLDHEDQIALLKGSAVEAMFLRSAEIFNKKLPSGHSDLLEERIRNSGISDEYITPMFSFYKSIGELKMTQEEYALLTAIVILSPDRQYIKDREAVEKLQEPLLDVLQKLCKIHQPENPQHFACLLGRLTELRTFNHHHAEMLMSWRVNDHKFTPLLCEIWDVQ

| Structure (SMILES) | EC50 [nM] | Emax [%] |
| --- | --- | --- |
| CC[C@H]1[C@@H](O)[C@@H]2[C@H](CC[C@]3(C)[C@@H]([C@H](C)CCOC(=O)NS(=O)(=O)c4ccc(OC(F)(F)F)c(F)c4)CC[C@@H]23)[C@@]2(C)CC[C@@H](O)C[C@@H]12 [Example 104-k] | 100 to 1000 | 180 |
| CC[C@H]1[C@@H](O)[C@@H]2[C@H](CC[C@]3(C)[C@@H]([C@H](C)CCOC(=O)NS(=O)(=O)C(F)(F)F)CC[C@@H]23)[C@@]2(C)CC[C@@H](O)C[C@@H]12 [Example 108] | 1000 to 10000 | 309 |
| CC[C@H]1[C@@H](O)[C@@H]2[C@H](CC[C@]3(C)[C@@H]([C@H](C)CCOC(=O)N4CC(=O)N(Cc5ccccc5)S4(=O)=O)CC[C@@H]23)[C@@]2(C)CC[C@@H](O)C[C@@H]12 [Example 109] | 1000 to 10000 | 142 |
| CC[C@H]1[C@@H](O)[C@@H]2[C@H](CC[C@]3(C)[C@@H]([C@H](C)CCOC(=O)N4CC(=O)NS4(=O)=O)CC[C@@H]23)[C@@]2(C)CC[C@@H](O)C[C@@H]12 [Example 110] | 1000 to 10000 | 28 |
| CC[C@H]1[C@@H](O)[C@@H]2[C@H](CC[C@]3(C)[C@@H]([C@H](C)CCCOC(=O)NS(=O)(=O)c4ccc(C(C)(C)C)cc4)CC[C@@H]23)[C@@]2(C)CC[C@@H](O)C[C@@H]12 [Example 111] | 100 to 1000 | 208 |
| CC[C@H]1[C@@H](O)[C@@H]2[C@H](CC[C@]3(C)[C@@H]([C@H](C)CCCOC(=O)NS(=O)(=O)c4cccc(C(C)(C)C)c4)CC[C@@H]23)[C@@]2(C)CC[C@@H](O)C[C@@H]12 [Example 112] | 100 to 1000 | 123 |
| CC[C@H]1[C@@H](O)[C@@H]2[C@H](CC[C@]3(C)[C@@H]([C@H](C)CCCOC(=O)NS(C)(=O)=O)CC[C@@H]23)[C@@]2(C)CC[C@@H](O)C[C@@H]12 [Example 113] | 1000 to 10000 | 130 |
| CC[C@H]1[C@@H](O)[C@@H]2[C@H](CC[C@]3(C)[C@@H]([C@H](C)CCCOC(=O)NS(=O)(=O)C(C)C)CC[C@@H]23)[C@@]2(C)CC[C@@H](O)C[C@@H]12 [Example 114] | 100 to 1000 | 345 |
| CC[C@H]1[C@@H](O)[C@@H]2[C@H](CC[C@]3(C)[C@@H]([C@H](C)CCCOC(=O)NS(=O)(=O)c4ccc5ccccc5c4)CC[C@@H]23)[C@@]2(C)CC[C@@H](O)C[C@@H]12 [Example 115] | 100 to 1000 | 376 |
| CC[C@H]1[C@@H](O)[C@@H]2[C@H](CC[C@]3(C)[C@@H]([C@H](C)CCCOC(=O)NS(=O)(=O)c4ccc(-c5ccccc5)cc4)CC[C@@H]23)[C@@]2(C)CC[C@@H](O)C[C@@H]12 [Example 116] | 1000 to 10000 | 294 |
| CC[C@H]1[C@@H](O)[C@@H]2[C@H](CC[C@]3(C)[C@@H]([C@H](C)CCCOC(=O)NS(=O)(=O)C(C)(C)C)CC[C@@H]23)[C@@]2(C)CC[C@@H](O)C[C@@H]12 [Example 117] | 100 to 1000 | 365 |
| CC[C@H]1[C@@H](O)[C@@H]2[C@H](CC[C@]3(C)[C@@H]([C@H](C)CCCOC(=O)NS(=O)(=O)N(C)C)CC[C@@H]23)[C@@]2(C)CC[C@@H](O)C[C@@H]12 [Example 118] | 100 to 1000 | 367 |
| CC[C@H]1[C@@H](O)[C@@H]2[C@H](CC[C@]3(C)[C@@H]([C@H](C)CCCOC(=O)NS(=O)(=O)N4CCCC4)CC[C@@H]23)[C@@]2(C)CC[C@@H](O)C[C@@H]12 [Example 119] | 1000 to 10000 | 370 |
| CC[C@H]1[C@@H](O)[C@@H]2[C@H](CC[C@]3(C)[C@@H]([C@H](C)CCCOC(=O)NS(=O)(=O)C4CCCC4)CC[C@@H]23)[C@@]2(C)CC[C@@H](O)C[C@@H]12 [Example 120] | 100 to 1000 | 485 |
| CC[C@H]1[C@@H](O)[C@@H]2[C@H](CC[C@]3(C)[C@@H]([C@H](C)CCCOC(=O)Nc4ccc(C(C)(C)C)cc4)CC[C@@H]23)[C@@]2(C)CC[C@@H](O)C[C@@H]12 [Example 121] | 1000 to 10000 | 8 |
| CC[C@H]1[C@@H](O)[C@@H]2[C@H](CC[C@]3(C)[C@@H]([C@H](C)CCCOC(=O)NC4CC4)CC[C@@H]23)[C@@]2(C)CC[C@@H](O)C[C@@H]12 [Example 122] | 100 to 1000 | 204 |
| CC[C@H]1[C@@H](O)[C@@H]2[C@H](CC[C@]3(C)[C@@H]([C@H](C)CCOC(=O)NC4CC4)CC[C@@H]23)[C@@]2(C)CC[C@@H](O)C[C@@H]12 [Example 123] | < 100 | 379 |
| CC[C@H]1[C@@H](O)[C@@H]2[C@H](CC[C@]3(C)[C@@H]([C@H](C)CCCOC(=O)NCc4ccccc4)CC[C@@H]23)[C@@]2(C)CC[C@@H](O)C[C@@H]12 [Example 124] | 100 to 1000 | 225 |
| CC[C@H]1[C@@H](O)[C@@H]2[C@H](CC[C@]3(C)[C@@H]([C@H](C)CCOC(=O)NCc4ccccc4)CC[C@@H]23)[C@@]2(C)CC[C@@H](O)C[C@@H]12 [Example 125] | 100 to 1000 | 305 |
| CC[C@H]1[C@@H](O)[C@@H]2[C@H](CC[C@]3(C)[C@@H]([C@H](C)CCCOC(=O)NC4CCCCC4)CC[C@@H]23)[C@@]2(C)CC[C@@H](O)C[C@@H]12 [Example 126] | 1000 to 10000 | 187 |
| CC[C@H]1[C@@H](O)[C@@H]2[C@H](CC[C@]3(C)[C@@H]([C@H](C)CCOC(=O)NC4CCCCC4)CC[C@@H]23)[C@@]2(C)CC[C@@H](O)C[C@@H]12 [Example 127] | 100 to 1000 | 308 |
| CC[C@H]1[C@@H](O)[C@@H]2[C@H](CC[C@]3(C)[C@@H]([C@H](C)CCCOC(=O)N(C)C)CC[C@@H]23)[C@@]2(C)CC[C@@H](O)C[C@@H]12 [Example 128] | 1000 to 10000 | 138 |
| CC[C@H]1[C@@H](O)[C@@H]2[C@H](CC[C@]3(C)[C@@H]([C@H](C)CCOC(=O)N(C)C)CC[C@@H]23)[C@@]2(C)CC[C@@H](O)C[C@@H]12 [Example 129] | 100 to 1000 | 323 |
| CC[C@H]1[C@@H](O)[C@@H]2[C@H](CC[C@]3(C)[C@@H]([C@H](C)CCCOC(=O)N4CCOCC4)CC[C@@H]23)[C@@]2(C)CC[C@@H](O)C[C@@H]12 [Example 130] | 1000 to 10000 | 256 |
| CC[C@H]1[C@@H](O)[C@@H]2[C@H](CC[C@]3(C)[C@@H]([C@H](C)CCCOC(=O)N4CCCC4)CC[C@@H]23)[C@@]2(C)CC[C@@H](O)C[C@@H]12 [Example 131] | 100 to 1000 | 202 |
| CC[C@H]1[C@@H](O)[C@@H]2[C@H](CC[C@]3(C)[C@@H]([C@H](C)CCCOC(=O)N(CC)CC)CC[C@@H]23)[C@@]2(C)CC[C@@H](O)C[C@@H]12 [Example 132] | 1000 to 10000 | 205 |
| CC[C@H]1[C@@H](O)[C@@H]2[C@H](CC[C@]3(C)[C@@H]([C@H](C)CCOC(=O)NC4CCC4)CC[C@@H]23)[C@@]2(C)CC[C@@H](O)C[C@@H]12 [Example 133] | < 100 | 283 |
| CC[C@H]1[C@@H](O)[C@@H]2[C@H](CC[C@]3(C)[C@@H]([C@H](C)CCOC(=O)NC4CCCC4)CC[C@@H]23)[C@@]2(C)CC[C@@H](O)C[C@@H]12 [Example 134] | 100 to 1000 | 267 |
